{"source": "patent US12721856B2", "about": "“Psilocybin compositions, methods of making and methods of using the same” (priority 2021, dated 2026)", "assay": "Solubility in water", "type": "physicochemical", "source_text": "The psilocybin in the form Polymorph A or A′ has the general properties illustrated in Table 5 below: […]", "data": [{"smiles": "CN(C)CCc1c[nH]c2cccc(OP(=O)(O)O)c12", "note": "[Psilocybin]", "values": [{"measurement": "solubility", "result": "~15", "unit": "mg/mL"}]}]}
